This note sets out measurements from US5942503A, “Use of Epinastine for the treatment of pain” (Boehringer Indelheim KG, priority 1995, dated 1999).

Several values for one entry are separate records, joined by “and”; a condition that tells them apart may be missing. Identical values can stand only once. Counter-ions that a name gives are not always drawn. Like-named read-outs stand apart in the source and are kept apart here.

For one test, the target named is T1, rat 5HT7 receptor (Rattus norvegicus, UniProt P32305).
T1 construct: expressed in transfected cells; host or cells: CHO cells
T1 sequence (P32305 whole entry): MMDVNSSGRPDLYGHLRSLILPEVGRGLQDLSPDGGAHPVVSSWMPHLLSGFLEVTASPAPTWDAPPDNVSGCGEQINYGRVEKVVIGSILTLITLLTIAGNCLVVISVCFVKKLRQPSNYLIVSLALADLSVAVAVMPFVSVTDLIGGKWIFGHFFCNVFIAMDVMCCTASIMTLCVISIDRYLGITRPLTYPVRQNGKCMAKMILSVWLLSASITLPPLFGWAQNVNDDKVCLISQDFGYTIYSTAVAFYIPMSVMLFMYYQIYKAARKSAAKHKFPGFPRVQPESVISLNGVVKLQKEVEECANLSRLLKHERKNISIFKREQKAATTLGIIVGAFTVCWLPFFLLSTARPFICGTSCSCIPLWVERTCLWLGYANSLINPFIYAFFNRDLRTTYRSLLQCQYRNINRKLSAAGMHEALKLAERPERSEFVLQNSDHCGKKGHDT
Nature of the test: Binding of [3H] LSD to rat 5HT7 receptor expressed in CHO cells. On the procedure:
Binding of 2.0 nM [^3 H] LSD to a rat 5HT7 receptor expressed in CHO cells was measured for 60 minutes at 37° C. in 50 mM Tris-HCl buffer, pH 7.4, containing 10 mM MgCl2 and 0.5 mM EDTA. The reaction was terminated by rapid vacuum filtration onto glass fiber filters pretreated with 0.1% polyethyleneimine. Binding studies were made in duplicate in the absence of the drug and in the presence of between 6 and 8 concentrations of epinastine between 3 nM and 10 μM. Radioactivity trapped on the filters in the presence of each drug concentration was measured and compared with control values in order to ascertain interaction of the drug with the cloned 5-HT7 receptor site. Non-specific binding was determined in the presence of 5-carboxamidotryptamine (5-CT). The IC50 for the displacement of radiolabelled ligand was determined by graphical extrapolation and Ki values were calculated after correction for the radioligand occupancy shift by the Cheng and Prusoff equation (see Biochem. Pharmacol. 22, (1973): 3099-3108). Three experiments were carried out.

Test [1] concerns rats of the strain Chbb:THOM. Nature of the test: animal or person. As to conditions: for Mean value of pain threshold: 3 hours after yeast. On the procedure: The method of Randall and Selitto was modified through use of the Analgesia meter by Basile of Milan.
Groups of 10 fasted rats of the strain Chbb:THOM (weight 110-140 g, 5 male 5 female) were dosed orally with it Natrosol 250 HX, 1 ml/100 g body weight, containing 0, 0.3, 1.0, 3.0 or 10 mg/kg epinastine (racemic mixture). 1 hour later the rats were injected subplantar with a suspension of yeast cells in a volume 0.1 ml into the right hind paw. 3 hours after injection of the yeast suspension, the pain threshold was determined by increasing the pressure on the inflamed paw until a sign of pain was produced. From the pain threshold measured after the different doses of the epinastine, linear regression analysis was used to determine an ED50.

For a further test, the system named is Male Wistar rats. On the procedure: Male Wistar rats weighing 175-190 g were anaesthetised with nembutal 50 mg/kg i.p. and the jugular vein was cannulated for injection of drugs. The animals were placed in a stereotaxic frame. Symmetrical boreholes were drilled 3.0 mm laterally and 3.2 mm posteriorly from bregma and the electrodes were lowered 9.5 mm from dura mater. The test compound epinastine or control solution were administered intravenously 10 min prior to electrical stimulation of the right trigeminal ganglion (5 min; 2.0 mA, 5 Hz, 5 ms duration and Evans blue (30 mg/kg i.v.), was given 5 min prior to electrical stimulation as a marker of plasma protein extravasation. 15 minutes after the end of the stimulation period the animals were perfused with 50 ml saline via the left cardiac ventricle to remove intravascular Evans blue. The dura mater was removed, blotted dry and weighed. Tissue Evans blue was extracted in 0.3 ml formamide at 50° C. for 24 h. Dye concentrations were measured with a spectrophotometer at 620 nm wavelength, interpolated on a standard curve and expressed as ng Evans blue content per mg tissue weight.
Extravasation was expressed as the quotient calculated by dividing the Evan's blue content of the stimulated side by the Evan's blue content of the unstimulated side. Results are expressed as means.

The mark [2] stands for this setting: individual values of the three experiments, read-out: Measured Ki values.
The mark [3] stands for this setting: mean of three experiments, 2.0 nM [3H] LSD, 60 minutes at 37° C., read-out: mean Ki value.

The Ki is a dissociation constant, usually derived from enzyme kinetics or from competition with a known ligand. With `NC1=NCC2c3ccccc3Cc3ccccc3N12` (single isomer, unassigned; (-)) [Epinastine (-) Enantiomer, (-)-3-Amino-9,13b-dihydro-1H-dibenz-[c,f]-imidazo[1,5a]-azepine-hydrochloride], the Ki at rat 5HT7 receptor (setting [2]) is 0.155 µM and 0.204 µM and 0.207 µM; at rat 5HT7 receptor (setting [3]), 0.189 µM.
As for `COc1ccc(CN(CCN(C)C)c2ccccn2)cc1` [Mepyramine], on rat 5HT7 receptor (setting [2]), the Ki is 2.66 µM and 0.747 µM and 1.33 µM.
As to `NC1=NCC2c3ccccc3Cc3ccccc3N12` (single isomer, unassigned; (+)) [Epinastine (+) Enantiomer, (+)-3-Amino-9,13b-dihydro-1H-dibenz-[c,f]-imidazo[1,5a]-azepine-hydrochloride], the Ki on rat 5HT7 receptor (setting [2]) was 0.045 µM and 0.018 µM and 0.022 µM; on rat 5HT7 receptor (setting [3]), 0.028 µM.
For the compound `CN1CCC(=C2c3ccccc3CC(=O)c3sccc32)CC1` [Ketotifen], the Ki at rat 5HT7 receptor (setting [2]) is 0.406 µM and 0.572 µM and 0.331 µM.
Usually ED50 stands for the dose that gives a 50% effect, or the effect in half of the subjects. Regarding `NC1=NCC2c3ccccc3Cc3ccccc3N12` (racemic) [Epinastine, 3-amino-9,13b-dihydro-1H-dibenz[c,f]-imidazo[5,1-a]azepine hydrochloride], the “% Increase of pain threshold” value in test [1] (0.3 mg/kg p.o.) was determined as 9.6%; in test [1] (1.0 mg/kg p.o.), 56.4%; in test [1] (3.0 mg/kg p.o.), 72.5%; in test [1] (10.0 mg/kg p.o.), 81.4%. Also, the “Mean value of pain threshold” value in test [1] (0.3 mg/kg p.o.) is listed as 164.8 g/hind paw; in test [1] (1.0 mg/kg p.o.), 235.2 g/hind paw; in test [1] (3.0 mg/kg p.o.), 259.4 g/hind paw; in test [1] (10.0 mg/kg p.o.), 272.8 g/hind paw. The ED50 in test [1] (Rattus norvegicus, po, read-out: ED50, dose required to increase the pain threshold by 50%) stood at 1.1 mg/kg. Further, the “pain threshold in inflamed rat paw” value in test [1] (result in words) is listed as “increased the pain threshold”. Also, the Ki was 0.027 µM and 0.041 µM and 0.03 µM on rat 5HT7 receptor (Measured Ki values, individual values of the three experiments); 0.033 µM at rat 5HT7 receptor (mean Ki value, mean of three experiments, 2.0 nM [3H] LSD, 60 minutes at 37° C.). For the same compound, the “Quotient stimulated/non-stimulated side, mean” value in the test with Male Wistar rats (epinastine 10 μg/kg i.v., mean of 7 animals (control mean 1.25)) is recorded as 0.98. Besides, the “Evans blue extravasation induced by electrical stimulation of the trigeminal ganglion” value in the test with Male Wistar rats (result in words) is recorded as “significantly reduced”.
